Measured values as given in patent publication US9481709B2, “Boropeptide inhibitors of enteropeptidase and their uses in treatment of obesity, overweight and/or diseases associated with an abnormal fat metabolism” (OBE THERAPY BIOTECHNOLOGY, priority 2007, dated 2016).

Experiments:
[1] = biological target: Plasmin (Homo sapiens, UniProt P00747); test: Plasmin
Description: (§1) Table printed on a drawing sheet, Fig. 5
Head of the field: Plasmin
(§2) The patent's description of the figure: FIG. 5 is a Table showing the IC 50 (in nM) of enteropeptidase, various serine proteases and other enzyme families, in the presence of compounds OBE 1999, OBE 2000, OBE 2001 or OBE 2002.
(§3) First copying reader's note: Each column is one compound; each row gives its IC50 against the named enzyme.
Where the first naming reader finds the target: head: Plasmin

[2] = biological target: Enteropeptidase (Homo sapiens, UniProt P98073); test: Enteropeptidase
Description: as §1
Head of the field: Enteropeptidase
as §2, §3
Where the first naming reader finds the target: head: Enteropeptidase

[3] = Effect on weight in a model of obesity induced by a hyperlipidic diet; assay type: in vivo, mice; conditions: 40 mg/kg/day oral; for gain or loss of weight according to the initial weight, mean: high fat diet, Swiss male mice
Method: 1. Effect of OBE2001 on Weight
The aim of this first in vivo experiment is to determine the anti-obesity effect of OBE2001 in a model of obesity induced by a hyperlipidic diet in mice.
OBE2001 (Acetyl-Ala-Phe-BoroArg) was provided under salt form (molecular weight of 568.3 g/mol). Swiss male mice, 4 weeks of age, were divided into 2 groups of 10 animals each, receiving the following:
Administration of OBE2001 was carried out as a solution in water. Both OBE2001 or vehicle (water used a negative control) were administrated to the animals daily by the oral route in an administration of 5 ml/kg body weight.
Concerning the feeding of the animals, before the experiments (acclimation period), normal diet (reference No. 824050 SDSIDIETEX food) was available ad libitum during the acclimation period. 7 days before the beginning of the study, a hypercaloric High Fat diet ([…], 4.73 Kcal/g; reference 824053 SDSIDIETEX) was given to groups 1 and 2.
Animals were weighed daily from at D-8 (8 days before the beginning of the experiment) then from D-5 to the end of the study. From D1 (first day of the experiment), food was given ad libitum.

[4] = Effect on triglyceride absorption after oral gavage with clinoleic 20% + cholesterol; assay type: in vivo, mice; conditions: for triglycerides, area under the curve: 0-360 min
Method: 2. Effect of OBE2001 on Triglyceride Absorption The scope of this second in vivo experiment was to analyse the effects of the OBE2001 compound on triglycerides absorption. To that purpose, mice were injected with OBE2001, before and/or after gavage with a solution enriched with cholesterol and free fatty acids (clinoleic at 20%). In this study, 7 week old Swiss CD1 male mice were weighed and randomized for body weight; 3 groups of 5 mice were then constituted of: • Group 1 (solvant): control group. Vehicle (H2O+2% DMSO) at t-5 min+solution A (clinoleic 20%+cholesterol) at t0. • Group 2 (OBE 25+25): OBE2001 25 mg/kg (before and after gavage). OBE2001 25 mg/kg (solution B) at t-5 min+OBE2001 25 mg/kg in solution A (solution C) at t0. • Group 3 (OBE 25): OBE2001 25 mg/kg […]. Vehicle (H2O+2% DMSO) at t-5 min+OBE2001 25 mg/kg in solution A (solution C) at t0. 30 minutes before treatment (with solution A, B or C) blood was collected by retro orbital puncture after a slight anaesthesia (Isoflurane), to determine basal (t0) triglycerides levels. All solutions were then administered by oral gavage at t-5 (vehicle or solution B) or t0 (solution A or C). After administration of the solution A or C (containing fatty acids+cholesterol), blood was collected again by retro orbital puncture after a slight anaesthesia (Isoflurane) at time 60, 120, 180, 300 and 360 minutes for measurement of triglycerides levels. At time 360 minutes, mice were sacrificed.

[5] = biological target: Kallikrein (Homo sapiens, UniProt P03952); test: Kallikrein
Description: as §1
Head of the field: Kallikrein
as §2, §3
Where the first naming reader finds the target: head: Kallikrein

Chain of Kallikrein (P03952 20-638): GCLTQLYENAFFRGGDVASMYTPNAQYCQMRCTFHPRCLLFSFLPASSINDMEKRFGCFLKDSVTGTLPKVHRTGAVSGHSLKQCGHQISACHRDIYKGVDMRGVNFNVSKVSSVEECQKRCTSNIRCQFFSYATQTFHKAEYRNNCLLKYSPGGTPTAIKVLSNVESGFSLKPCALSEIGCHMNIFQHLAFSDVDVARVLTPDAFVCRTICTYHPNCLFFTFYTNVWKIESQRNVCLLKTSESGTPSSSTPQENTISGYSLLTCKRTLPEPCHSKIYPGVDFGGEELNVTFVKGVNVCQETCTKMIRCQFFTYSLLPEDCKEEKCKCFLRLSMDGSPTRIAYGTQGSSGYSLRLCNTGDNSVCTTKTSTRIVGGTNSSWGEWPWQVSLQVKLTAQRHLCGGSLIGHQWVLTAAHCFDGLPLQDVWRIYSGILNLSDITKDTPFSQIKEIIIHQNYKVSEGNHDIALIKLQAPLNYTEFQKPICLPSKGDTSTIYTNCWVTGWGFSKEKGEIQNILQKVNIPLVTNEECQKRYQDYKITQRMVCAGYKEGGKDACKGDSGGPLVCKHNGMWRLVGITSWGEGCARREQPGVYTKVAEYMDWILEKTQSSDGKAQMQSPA
Chain of Plasmin (P00747 97-810): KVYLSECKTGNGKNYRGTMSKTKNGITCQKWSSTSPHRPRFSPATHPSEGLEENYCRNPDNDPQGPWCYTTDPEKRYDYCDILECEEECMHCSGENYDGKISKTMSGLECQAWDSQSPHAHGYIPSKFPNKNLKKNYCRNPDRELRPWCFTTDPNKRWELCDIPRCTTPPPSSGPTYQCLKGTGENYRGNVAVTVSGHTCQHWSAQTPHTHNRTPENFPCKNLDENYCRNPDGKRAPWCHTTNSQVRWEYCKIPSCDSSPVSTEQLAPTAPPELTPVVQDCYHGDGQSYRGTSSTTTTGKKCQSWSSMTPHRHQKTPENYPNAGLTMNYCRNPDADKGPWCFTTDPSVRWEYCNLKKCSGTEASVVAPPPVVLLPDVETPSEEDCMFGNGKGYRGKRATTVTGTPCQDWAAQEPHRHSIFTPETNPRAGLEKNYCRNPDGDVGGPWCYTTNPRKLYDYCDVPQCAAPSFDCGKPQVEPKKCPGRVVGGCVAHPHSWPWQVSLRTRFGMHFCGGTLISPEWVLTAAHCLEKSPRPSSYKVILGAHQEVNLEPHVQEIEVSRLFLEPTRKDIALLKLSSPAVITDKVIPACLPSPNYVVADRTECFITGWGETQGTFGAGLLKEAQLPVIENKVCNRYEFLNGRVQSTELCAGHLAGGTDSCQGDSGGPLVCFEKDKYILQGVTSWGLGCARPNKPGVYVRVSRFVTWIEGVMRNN
Chain of Enteropeptidase (P98073 2-1019): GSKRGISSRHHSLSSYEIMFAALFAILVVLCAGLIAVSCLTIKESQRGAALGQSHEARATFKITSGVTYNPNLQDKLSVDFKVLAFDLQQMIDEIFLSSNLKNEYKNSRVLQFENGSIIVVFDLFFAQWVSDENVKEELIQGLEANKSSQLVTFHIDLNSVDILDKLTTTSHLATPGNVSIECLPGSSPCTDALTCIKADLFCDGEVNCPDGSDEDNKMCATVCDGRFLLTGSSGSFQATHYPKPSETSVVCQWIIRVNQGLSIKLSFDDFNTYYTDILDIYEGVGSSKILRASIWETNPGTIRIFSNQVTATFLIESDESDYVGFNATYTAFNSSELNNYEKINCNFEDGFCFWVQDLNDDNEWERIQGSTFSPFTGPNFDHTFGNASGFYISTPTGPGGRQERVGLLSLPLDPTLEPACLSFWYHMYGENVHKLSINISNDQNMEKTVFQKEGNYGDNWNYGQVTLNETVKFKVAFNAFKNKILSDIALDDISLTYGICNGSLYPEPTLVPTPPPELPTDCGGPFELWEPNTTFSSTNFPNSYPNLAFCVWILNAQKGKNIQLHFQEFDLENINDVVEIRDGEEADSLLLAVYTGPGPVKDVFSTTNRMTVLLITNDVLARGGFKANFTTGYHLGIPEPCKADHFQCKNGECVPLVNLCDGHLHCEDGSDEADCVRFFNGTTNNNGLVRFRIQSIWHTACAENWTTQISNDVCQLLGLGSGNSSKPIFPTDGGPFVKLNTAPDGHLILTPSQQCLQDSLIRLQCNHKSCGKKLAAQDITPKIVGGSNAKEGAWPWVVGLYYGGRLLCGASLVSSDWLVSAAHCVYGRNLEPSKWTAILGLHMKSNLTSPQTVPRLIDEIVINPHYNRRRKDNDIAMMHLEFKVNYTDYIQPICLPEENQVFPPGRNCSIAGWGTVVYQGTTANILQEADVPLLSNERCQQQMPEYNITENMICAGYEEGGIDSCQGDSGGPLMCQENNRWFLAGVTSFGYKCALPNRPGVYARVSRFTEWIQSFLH

## CC(=O)N[C@@H](C)C(=O)N[C@@H](Cc1ccccc1)C(=O)N[C@@H](CCCNC(=N)N)B1OC2C[C@@H]3C[C@@H](C3(C)C)[C@]2(C)O1 (some centres unmarked) [OBE2001]
[1]
  IC50: 21.7 nM
[2]
  IC50: 7.3 nM
[3]; significant from day 4, highly significant from day 8
  weight of treated mice versus control group: significantly lower
[3]; D1
  gain or loss of weight according to the initial weight, mean: -2.7 g
[3]; D2
  gain or loss of weight according to the initial weight, mean: -1.2 g
[3]; D3
  gain or loss of weight according to the initial weight, mean: -0.8 g
[3]; D4
  gain or loss of weight according to the initial weight, mean: 0.2 g
[3]; D5
  gain or loss of weight according to the initial weight, mean: 0.7 g
[3]; D6
  gain or loss of weight according to the initial weight, mean: 1.0 g
[3]; D7
  gain or loss of weight according to the initial weight, mean: 0.9 g
[3]; D8
  gain or loss of weight according to the initial weight, mean: 1.3 g
[3]; D9
  gain or loss of weight according to the initial weight, mean: 1.0 g
[3]; D10
  gain or loss of weight according to the initial weight, mean: 1.1 g
[3]; D11
  gain or loss of weight according to the initial weight, mean: 0.5 g
[3]; D12
  gain or loss of weight according to the initial weight, mean: 1.8 g
[3]; D13
  gain or loss of weight according to the initial weight, mean: 2.0 g
[4]; Group 2, 25+25 mg/kg
  triglycerides, area under the curve: 48559
[4]; Group 3, 25 mg/kg
  triglycerides, area under the curve: 56273
[4]; 25 mg/kg, groups 2 and 3
  triglyceride absorption compared to the control group: decrease in triglyceride absorption
[4]; 60 min, Group 2, 25 mg/kg at t-5 min + 25 mg/kg at t0, oral gavage
  plasma triglycerides, % of basal value: 243.39 % of basal value
[4]; 60 min, Group 3, single 25 mg/kg in solution A at t0, oral gavage
  plasma triglycerides, % of basal value: 293.17 % of basal value
[4]; 120 min, Group 2, 25 mg/kg at t-5 min + 25 mg/kg at t0, oral gavage
  plasma triglycerides, % of basal value: 202.34 % of basal value
[4]; 120 min, Group 3, single 25 mg/kg in solution A at t0, oral gavage
  plasma triglycerides, % of basal value: 269.24 % of basal value
[4]; 180 min, Group 2, 25 mg/kg at t-5 min + 25 mg/kg at t0, oral gavage
  plasma triglycerides, % of basal value: 127.81 % of basal value
[4]; 180 min, Group 3, single 25 mg/kg in solution A at t0, oral gavage
  plasma triglycerides, % of basal value: 126.45 % of basal value
[4]; 300 min, Group 2, 25 mg/kg at t-5 min + 25 mg/kg at t0, oral gavage
  plasma triglycerides, % of basal value: 62.35 % of basal value
[4]; 300 min, Group 3, single 25 mg/kg in solution A at t0, oral gavage
  plasma triglycerides, % of basal value: 70.22 % of basal value
[4]; 360 min, Group 2, 25 mg/kg at t-5 min + 25 mg/kg at t0, oral gavage
  plasma triglycerides, % of basal value: 56.71 % of basal value
[4]; 360 min, Group 3, single 25 mg/kg in solution A at t0, oral gavage
  plasma triglycerides, % of basal value: 60.92 % of basal value
[4]; Group 2/group 1, 25+25 mg/kg, 25 mg/kg
  % of decrease of triglyceride area under the curve versus group 1: 26%
[4]; Group 3/group 1, 25 mg/kg
  % of decrease of triglyceride area under the curve versus group 1: 14%
[5]
  IC50: 6.9 nM
